The values below come from patent US4517189A, “2,6,7,8-Substituted quinazolines, process for production thereof, and use thereof” (Showa Denko K.K., priority 1983, dated 1985).

Experiment [1] deals with blood pressure (average arterial pressure). Put plainly: Blood pressure lowering activity in anesthetized rabbits. Format: in vivo, rabbit. The conditions noted are these: average of at least three rabbits.
In experiment [2] the test system is platelet aggregation induced by arachidonic acid. Nature of the experiment: Inhibitory effect on platelet aggregation (arachidonic acid-induced, rabbit platelet-rich plasma). The conditions noted are these: arachidonic acid 137 μ moles/liter. Format: cell-based. As for the experimental part: (1) Measurement of inhibitory effect on platelet aggregation:
Blood was drawn from ether-anesthetized rabbits (weighing 2.5 to 3.5 kg) through a canule inserted into the carotid artery. Immediately then, a 3.8% aqueous solution of sodium citrate was added to the collected blood in a volume of 1/10 of the volume of the blood after addition of the aqueous solution citrate solution. The blood was then centrifuged for 15 minutes at 150 G at room temperature to obtain plasma having platelet suspended therein as a supernatant.
An aliquot of 0.435 ml of platelet-rich plasma was put into the cell of an aggregometer adjusted to a temperature of 37° C. and a stirring speed of 1200 rpm. […] An aqueous solution of arachidonic acid as a platelet aggregation inducing agent (the final concentration of arachidonic acid is 137μ moles/liter) was added, and with stirring, changes in absorbance were measured for 10 minutes.
The effect of platelet aggregation inhibition of the test compound was calculated as follows: [formula] ΔC: a change in absorbance in a control run, ΔS: a change in absorbance when the test compound was added.
In the control run, 2.5 μl of dimethyl sulfoxide was added instead of the test compound.

Setting [3] is: final concentration 100 μ moles/liter.
The mark [4] stands for this setting: final concentration 10 μ moles/liter.
Where [5] appears, read: final concentration 30 μ moles/liter.
Setting [6] is: final concentration 3 μ moles/liter.

As to `CCOC(=O)c1c(C)cc2cnc(C)nc2c1C` [Example 6, 2-methyl-7-ethoxycarbonyl-6,8-dimethylquinazoline], in experiment [1] (100 μg/kg i.v.), the “Blood pressure lowering effect” value turned out to be 12 mmHg. Also, the “inhibition of platelet aggregation” value in experiment [2] (setting [3]) came to 100%.

As for `CCOC(=O)c1c(C)cc2cnc(-c3ccccc3C)nc2c1C` [Example 3, 2-(o-methylphenyl)-7-ethoxycarbonyl-6,8-dimethylquinazoline], the “Blood pressure lowering effect” value in experiment [1] (100 μg/kg i.v.) worked out at 20 mmHg. For the same compound, the “inhibition of platelet aggregation” value in experiment [2] (setting [4]) and in experiment [2] (setting [5]) was 100% each time.

With `CCOC(=O)c1c(C)cc2cnc(-c3ccccc3F)nc2c1C` [Example 4, 2-(o-fluorophenyl)-7-ethoxycarbonyl-6,8-dimethylquinazoline], the “Blood pressure lowering effect” value in experiment [1] (100 μg/kg i.v.) worked out at 32 mmHg. In addition, the “inhibition of platelet aggregation” value in experiment [2] (final concentration 1 μ moles/liter) and in experiment [2] (setting [6]) was 100% in each case.

For the compound `CCOC(=O)c1c(C)cc2cnc(-c3ccccc3Cl)nc2c1C` [Example 1, 2-(o-chlorophenyl)-7-ethoxycarbonyl-6,8-dimethylquinazoline], the “Blood pressure lowering effect” value is listed as 12 mmHg in experiment [1] (10 μg/kg i.v.), 22 mmHg in experiment [1] (30 μg/kg i.v.) and 49 mmHg in experiment [1] (100 μg/kg i.v.). For the same compound, the “inhibition of platelet aggregation” value in experiment [2] (setting [6]), in experiment [2] (setting [4]) and in experiment [2] (setting [5]) was 100% each time.

Take `CCOC(=O)c1c(C)cc2cnc(Cc3ccccc3)nc2c1C` [Example 7, 2-benzyl-7-ethoxycarbonyl-6,8-dimethylquinazoline]: the “Blood pressure lowering effect” value in experiment [1] (100 μg/kg i.v.) was determined as 18 mmHg. In addition, the “inhibition of platelet aggregation” value in experiment [2] (setting [3]) worked out at 100%.

Regarding `CCOC(=O)c1c(C)cc2cnc(-c3ccccc3C(F)(F)F)nc2c1C` [Example 5, 2-(o-trifluoromethylphenyl)-7-ethoxycarbonyl-6,8-dimethylquinazoline], the “Blood pressure lowering effect” value in experiment [1] (100 μg/kg i.v.) was 25 mmHg. For the same compound, the “inhibition of platelet aggregation” value in experiment [2] (setting [3]) is on record as 100%.

As for `CCOC(=O)c1c(C)cc2cnc(-c3ccccc3)nc2c1C` [Example 2, 2-phenyl-7-ethoxycarbonyl-6,8-dimethylquinazoline], the “Blood pressure lowering effect” value in experiment [1] (100 μg/kg i.v.) was found to be 15 mmHg. Further, the “inhibition of platelet aggregation” value in experiment [2] (setting [4]) and in experiment [2] (setting [5]) was 100% throughout.
